Consider eleven compounds from US20240327385A1, “SUBSTITUTED PIPERIDINE COMPOUNDS AS RENIN INHIBITORS” (priority 2023, published 2024).

The target of this assay is human recombinant renin (Homo sapiens (Human), UniProt P00797). Description: human renin activity inhibition (SensoLyte 520 Renin Assay Kit Fluorimetric). As to conditions: 30 min preincubation at 37° C., fluorescence at 530 nm after 15 min at 37° C., read-out: IC50 (nM), inhibitory effect on human renin activity. The assay is classed as biochemical. Here is the method: The exemplary compounds of the disclosure were tested for their inhibitory effects on human renin activity, using a commercially available renin assay kit (SensoLyte® 520 Renin Assay Kit Fluorimetric), following the manufacture's manual.
Briefly, human recombinant renin (from the kit) was incubated with the compound of the disclosure or buffer for 30 min at 37° C. before substrate addition. Fluorescence intensity was measured at 530 nm after an incubation of 15 min at 37° C. Data was analyzed by Prism and fitted into a sigmodal curve for IC50 calculation.

Bounds are passed on as bounds.

Sequence of human recombinant renin (P00797 67-406): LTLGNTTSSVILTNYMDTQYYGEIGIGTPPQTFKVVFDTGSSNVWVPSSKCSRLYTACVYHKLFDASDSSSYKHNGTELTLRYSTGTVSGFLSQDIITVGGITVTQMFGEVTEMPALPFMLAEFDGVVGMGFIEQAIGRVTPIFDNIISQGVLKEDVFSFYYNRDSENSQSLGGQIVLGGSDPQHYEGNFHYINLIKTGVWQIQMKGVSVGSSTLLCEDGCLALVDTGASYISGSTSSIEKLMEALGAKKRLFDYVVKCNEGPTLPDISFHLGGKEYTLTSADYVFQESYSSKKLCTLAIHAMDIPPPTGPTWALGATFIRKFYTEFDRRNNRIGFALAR

Consider `CO[C@H]1C[C@H](Nc2cc(C3CC3)cnc2C(=O)N(CC(C)C)C2CNC[C@H](c3nnc(C4CC4)o3)C2)C1` (stereo partly drawn) [Compound 23, (3S)—{N-(2-methylpropyl), N-{5-cyclopropyl-3-[3-(trans-methoxy)cyclobutyl]amino}pyridine-2-carbonyl}amino-(5R)-(5-cyclopropyl-1,3,4-oxadiazol-2-yl)-piperidine], for which the concentration for half-maximal inhibition (IC50) (in general, the point on the concentration scale where inhibition reaches its midpoint) was determined as 1.2 nM.
To `CO[C@H]1C[C@H](Nc2cc(C3CC3)cnc2C(=O)N(CC(C)C)C2CNCC(C(=O)N3CCC(OC(F)(F)F)CC3)C2)C1` (stereo partly drawn) [Compound 13, (3S)—{N-(2-methylpropyl), N-{5-cyclopropyl-3-[3-(trans-methoxy)cyclobutyl]amino}pyridine-2-carbonyl}amino-(5R)-(4-trifluoromethoxypiperidine-N-carbonyl)-piperidine] belongs 3.8 nM; to `CO[C@H]1C[C@H](Nc2cc(C3CC3)cnc2C(=O)N(CC(C)C)C2CNC[C@H](c3nnc(C4CC(F)(F)C4)o3)C2)C1` (stereo partly drawn) [Compound 24, (3S)—{N-(2-methylpropyl), N-{5-cyclopropyl-3-[3-(trans-methoxy)cyclobutyl]amino}pyridine-2-carbonyl}amino-(5R)-(3,3-diflurorocyclobutyl-1,3,4-oxadiazol-2-yl)-piperidine], 1 nM; to `CO[C@H]1C[C@H](Nc2cc(C3CC3)cnc2C(=O)N(CC(C)C)[C@@H]2CNC[C@H](c3noc(C)n3)C2)C1` [Compound 28, (3S)—{N-(2-methylpropyl), N-{5-cyclopropyl-3-[3-(trans-methoxy)cyclobutyl]amino}pyridine-2-carbonyl}amino-(5R)-(5-methyl-1,2,4-oxadiazol-3-yl)-piperidine], under 10 nM.
To `CO[C@H]1C[C@H](Nc2cc(C3CC3)cnc2C(=O)N(CC(C)C)[C@H]2CCCNC2)C1` [Compound 26, (3S)—{N-(2-methylpropyl), N-{5-cyclopropyl-3-[3-(trans-methoxy)cyclobutyl]amino}pyridine-2-carbonyl}amino-piperidine] belongs under 20 nM; to `CC(C)CN(C(=O)c1ncc(C2CC2)cc1NC1COC1)[C@@H]1CNC[C@H](C(=O)N2CCOCC2)C1` [Compound 30], under 10 nM; to `CO[C@H]1C[C@H](Nc2cc(C3CC3)cnc2C(=O)N(CC(C)C)C2CNCC(C(=O)N3CCOCC3)C2)C1` (stereo partly drawn) [Compound 18, (3S)—{N-(2-methylpropyl), N-{5-cyclopropyl-3-[3-(trans-methoxy)cyclobutyl]amino}pyridine-2-carbonyl}amino-(5R)-(morpholine-N-carbonyl)-piperidine], 1.2 nM.
Turning to `CO[C@H]1C[C@H](Nc2cc(C3CC3)cnc2C(=O)N(CC(C)C)C2CNCC(C(=O)N3CCOC[C@@H]3C)C2)C1` (stereo partly drawn) [Compound 15, (3S)—{N-(2-methylpropyl), N-{5-cyclopropyl-3-[3-(trans-methoxy)cyclobutyl]amino}pyridine-2-carbonyl}amino-(5R)-[(3S)-methylmorpholine-N-carbonyl]-piperidine], the IC50 came out at 1 nM.
To `CC(C)CN(C(=O)c1ncc(C2CC2)cc1NC1CC1)[C@@H]1CNC[C@H](C(=O)N2CCOCC2)C1` [Compound 25, (3S)—[N-(2-methylpropyl), N-(5-cyclopropyl-3-cyclopropylamino)pyridine-2-carbonyl]amino-(5R)-(morpholine-N-carbonyl)-piperidine] belongs under 10 nM.
Next, `CO[C@H]1C[C@H](Nc2nc(C3CC3)ncc2C(=O)N(CC(C)C)[C@@H]2CNC[C@H](C(=O)N3CCOC[C@@H]3C)C2)C1` [Compound 46, (3S)—{N-(2-methylpropyl), N-{2-cyclopropyl-3-[3-(trans-methoxy)cyclobutyl]amino}pyrimidine-5-carbonyl}amino-(5R)-[(3S)-methylmorpholine-N-carbonyl]-piperidine]: under 250 nM.
Next, `CC(C)CN(C(=O)c1ncc(C(F)(F)F)cc1NC1COC1)[C@@H]1CNC[C@H](C(=O)N2CCOCC2)C1` [Compound 43, (3S)—{N-(2-methylpropyl), N-[5-trifluoromethyl-3-(oxetan-3-yl)amino]pyridine-2-carbonyl}amino-(5R)-(morpholine-N-carbonyl)-piperidine]: under 10 nM.
